A word on the IC50: it is the concentration that inhibits the measured activity by half.

The test system of one data set is IFN gamma release, PBMCs. In words: IFN gamma release in CD3/CD28 stimulated PBMC cells. The conditions noted are these: Homo sapiens, read-out: IC50 Values for Inhibition of Cytokine Release, PBMCs, IFNγ. The class given is cell-based. How it is done: (§1) (c) IL-2 and IFN Gamma Release in CD3/CD28 Stimulated PBMC Cells
(§2) PBMCs from healthy subjects are separated from whole blood using a density gradient (Lymphoprep, Axis-Shield Healthcare). Cells are added to a 96 well plate pre-coated with a mixture of […] monoclonal antibodies (0.3 ug/ml eBioscience and 3 ug/ml BD Pharmingen respectively). Compound at the desired concentration is then added to the wells and the plate left for 3 days under normal tissue culture conditions. Supernatants are harvested and IL-2 and IFN gamma release determined by Sandwich ELISA (Duo-set, R&D System). The IC50 is determined from the dose response curve.

Data set [1] has as its target T1, GSK3α (Homo sapiens, UniProt P49840). In words: GSK 3α enzyme inhibition (FRET), Method 2. The class given is biochemical. The conditions noted are these: Table 4a2, different laboratory.
In another data set the test system is IL-8 release, PBMCs. In words: LPS-induced IL-8 release in PBMC cells. The class given is cell-based. The conditions noted are these: Homo sapiens, LPS stimulated, read-out: IC50 Values for Inhibition of Cytokine Release, PBMCs, IL-8. As for the experimental part: (b) LPS-Induced TNFα/IL-8 Release in PBMC Cells
Peripheral blood mononuclear cells (PBMCs) from healthy subjects are separated from whole blood using a density gradient (Lymphoprep, Axis-Shield Healthcare). The PBMCs are seeded in 96 well plates and treated with compounds at the desired concentration for 2 hours before addition of 1 ng/ml LPS (Escherichia Coli 0111:B4 from Sigma Aldrich) for 24 hours under normal tissue culture conditions (37° C., 5% CO2). The supernatant is harvested for determination of […] concentrations by sandwich ELISA (Duo-set, R&D systems) and read on the fluorescence microplate reader (Varioskan® Flash, ThermoFisher Scientific).

For the next data set, the system named is PBMC cells. In words: Cell mitosis assay. The class given is cell-based. The conditions noted are these: Homo sapiens, read-out: % Inhibition of mitosis in PBMC cells at 5 μg/mL. As for the experimental part:
PBMCs from healthy subjects are separated from whole blood (Quintiles, London, UK) using a density gradient (Histopaque®-1077, Sigma-Aldrich, Poole, UK). The PBMCs (3 million cells per sample) are subsequently treated with 2% PHA (Sigma-Aldrich, Poole, UK) for 48 hr, followed by a 20 hr exposure to varying concentrations of test compounds. At 2 hr before collection, PBMCs are treated with demecolcine (0.1 μg/mL; Invitrogen, Paisley, UK) to arrest cells in metaphase. […] Fluorescence is observed using an ATTUNE flow cytometer (Invitrogen, Paisley, UK), gating for lymphocytes.

For a further data set, the target named is cSrc (Homo sapiens, UniProt P12931). In words: c-Src enzyme inhibition (FRET). The class given is biochemical. In short, it runs like this: (§3)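 Kinase activity is measured on a dual-labelled synthetic peptide by FRET. ATP is supplied as an 800 μM solution for c-Src and a 60 μM solution for Syk. Compound is tested at four added concentrations, 4 to 0.004 μg/mL.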
Chain of cSrc (P12931 whole entry): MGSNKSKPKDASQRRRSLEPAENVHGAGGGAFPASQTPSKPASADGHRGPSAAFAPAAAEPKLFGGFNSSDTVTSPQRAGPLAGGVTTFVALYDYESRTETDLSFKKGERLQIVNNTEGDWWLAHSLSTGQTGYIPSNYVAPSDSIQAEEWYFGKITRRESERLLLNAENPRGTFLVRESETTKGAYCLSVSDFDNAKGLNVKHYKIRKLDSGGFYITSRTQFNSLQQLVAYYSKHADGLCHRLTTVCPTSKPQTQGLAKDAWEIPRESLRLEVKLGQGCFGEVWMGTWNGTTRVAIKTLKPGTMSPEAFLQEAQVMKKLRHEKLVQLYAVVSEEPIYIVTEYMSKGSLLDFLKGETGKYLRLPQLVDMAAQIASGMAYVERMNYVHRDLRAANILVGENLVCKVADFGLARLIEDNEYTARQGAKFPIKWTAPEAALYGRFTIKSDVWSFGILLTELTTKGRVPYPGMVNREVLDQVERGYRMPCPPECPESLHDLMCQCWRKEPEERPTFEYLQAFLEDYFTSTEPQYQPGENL

Another data set deals with IL-2 release, PBMCs. In words: IL-2 release in CD3/CD28 stimulated PBMC cells. The class given is cell-based. The conditions noted are these: Homo sapiens, read-out: IC50 Values for Inhibition of Cytokine Release, PBMCs, IL-2. As for the experimental part: as §1, §2
The target in a further data set is Syk (Homo sapiens, UniProt P43405). In words: Syk enzyme inhibition (FRET). The class given is biochemical. A digest of the protocol: as §3
The test system of data set [2] is ICAM-1 expression, BEAS2B cells. In words: Poly I:C-induced ICAM-1 expression in BEAS2B cells. The class given is cell-based. The conditions noted are these: Homo sapiens, BEAS-2B; read-out: Poly IC induced ICAM1 in BEAS2B, IC50. A digest of the protocol: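 BEAS2B human bronchial epithelial cells pre-incubated 2 h with compound, then transfected with poly I:C (1 μg/mL) plus Oligofectamine. After 18 h, cell-surface ICAM-1 read by cell-based ELISA (A450–655), normalised to Crystal Violet cell number (A595); inhibition calculated against vehicle control at each concentration.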

For the next data set, the system named is d-U937 cells. In words: Cell viability: MTT assay. The class given is cell-based, human. The conditions noted are these: 1 μg/mL. In short, it runs like this:
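Differentiated U937 cells exposed to compound at 1 or 10 μg/mL, either 4 h in 5% FCS or 24 h in 10% FCS RPMI1640. MTT then added for 1 h, formazan dissolved in DMSO and read at 550 nm. Viability loss given as % versus 0.5% DMSO vehicle; apparent gains appear negative.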
(In general: Formazan colour is commonly taken as a measure of viable cells.)

For data set [3], the system named is TNFα release, d-U937 cells. In words: LPS-induced TNFα release in d-U937 cells. The class given is cell-based. The conditions noted are these: Homo sapiens, dU937; relative to 10 μg/mL BIRB796; Table 4c1; read-out: LPS Induced Release of Cytokine in d-U937 Cells, TNFα REC50. In short, it runs like this:
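U937 cells differentiated with PMA (100 ng/mL, 48–72 hr), pre-treated with compound for 2 hr, then stimulated with E. coli LPS (0.1 μg/mL) for 4 hr. Supernatant cytokine measured by sandwich ELISA; inhibition versus vehicle control, REC50 from concentration-response curve.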

The subject of data set [4] is IL-8 release, d-U937 cells. In words: LPS-induced IL-8 release in d-U937 cells. The class given is cell-based. The conditions noted are these: Homo sapiens, dU937; Table 4c1; read-out: LPS Induced Release of Cytokine in d-U937 Cells, IL-8 IC50. In short, it runs like this: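 IL-8 release after a 4 hr challenge with LPS (0.1 μg/mL, E. coli 0111:B4) following a 2 hr compound pretreatment. Cells were human U937 monocytes differentiated to macrophage-type with PMA 100 ng/mL for 48–72 hr. Relative 50% effective concentration derived from concentration–response data.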

Data set [5] concerns the target T1, GSK3α. In words: GSK 3α enzyme inhibition (FRET), Method 1. The class given is biochemical. The conditions noted are these: Table 4a1. In short, it runs like this:
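GSK3α was preincubated with test compound for 2 hr at RT, then a FRET peptide substrate and ATP were added for 1 hr. Protease development for 1 hr cleaved only non-phosphorylated peptide, and phosphorylation was read as the coumarin/fluorescein emission ratio. Concentrations given are those of the added solutions: enzyme 500 ng/mL, peptide 8 μM, ATP 40 μM.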

The mark [6] stands for this setting: Table 4a2, different laboratory.

T1 sequence (P49840 whole entry): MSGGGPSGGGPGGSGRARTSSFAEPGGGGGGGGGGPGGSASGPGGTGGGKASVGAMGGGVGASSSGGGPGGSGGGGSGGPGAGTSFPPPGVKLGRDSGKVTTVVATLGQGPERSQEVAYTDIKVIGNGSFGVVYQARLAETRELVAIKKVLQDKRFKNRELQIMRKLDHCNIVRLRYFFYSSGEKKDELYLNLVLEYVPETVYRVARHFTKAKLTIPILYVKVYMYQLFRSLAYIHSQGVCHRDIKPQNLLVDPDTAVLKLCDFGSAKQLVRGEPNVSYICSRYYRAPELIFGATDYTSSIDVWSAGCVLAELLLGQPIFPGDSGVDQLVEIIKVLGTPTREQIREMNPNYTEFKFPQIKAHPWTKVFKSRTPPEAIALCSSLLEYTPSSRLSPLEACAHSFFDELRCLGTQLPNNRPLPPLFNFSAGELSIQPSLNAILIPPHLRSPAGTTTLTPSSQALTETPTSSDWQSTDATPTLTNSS

Take `C#Cc1cc(Nc2nccc(Oc3ccc(NC(=O)Nc4cc(C(C)(C)C)nn4-c4ccc(OC)cc4)c4ccccc34)n2)cc(C(=O)N[C@@H](C)COC)c1` [Example 85, (S)-3-((4-((4-(3-(3-(tert-Butyl)-1-(4-methoxyphenyl)-1H-pyrazol-5-yl)ureido)-naphthalen-1-yl)oxy)pyrimidin-2-yl)amino)-5-ethynyl-N-(1-methoxypropan-2-yl)-benzamide]: the IC50 stood at 3.1 nM in the data set on IFN gamma release, PBMCs; 7950 nM on GSK3α [1]; 2.8 nM in the data set with IL-8 release, PBMCs; 33 nM against cSrc (setting [6]); 27.3 nM in the data set on IL-2 release, PBMCs; 92 nM against Syk (setting [6]). Moreover, the inhibition at 5 µg/mL with PBMC cells worked out at 6.6%.
`Cc1ccc(-n2nc(C(C)C)cc2NC(=O)Nc2ccc(Oc3ccnc(Nc4cc(C)cc(C(=O)NCCN5CCOCC5)c4)n3)c3ccccc23)cc1` [Example 44, 3-((4-((4-(3-(3-isopropyl-1-(p-tolyl)-1H-pyrazol-5-yl)ureido)naphthalen-1-yl)oxy)pyrimidin-2-yl)amino)-5-methyl-N-(2-morpholinoethyl)benzamide]: the IC50 in data set [2] amounted to 1.9 nM; in [4], 0.3 nM; at cSrc (Table 4a1), 9 nM; against GSK3α [5], 3950 nM; against Syk (Table 4a1), 17 nM. Moreover, the “Cell viability at time point in d-U937 cells, 4 h” value with d-U937 cells was “−ve (−ve and +ve indicate that the value is below and above respectively, the no significant effect threshold, defined as 30% inhibition at 1 μg/mL at the time point indicated)”. Further, in the data set with d-U937 cells, the “Cell viability at time point in d-U937 cells, 24 h” value was “−ve (−ve and +ve indicate that the value is below and above respectively, the no significant effect threshold, defined as 30% inhibition at 1 μg/mL at the time point indicated)”. The EC50 in [3] turned out to be 0.2 nM. Moreover, the inhibition at 5 µg/mL in the data set on PBMC cells came out at 37.2%.
Turning to `COc1cc(Nc2nccc(Oc3ccc(NC(=O)Nc4cc(C(C)C)nn4-c4ccc(C)cc4)c4ccccc34)n2)cc(C(=O)NCCN(C)C)c1` [Example 5, N-(2-(Dimethylamino)ethyl)-3-((4-((4-(3-(3-isopropyl-1-(p-tolyl)-1H-pyrazol-5-yl)ureido)naphthalen-1-yl)oxy)pyrimidin-2-yl)amino)-5-methoxybenzamide], the IC50 in data set [2] came out at 0.2 nM; in data set [4] it was 1.3 nM; against cSrc (Table 4a1), 2 nM; at GSK3α [5], 1470 nM; at Syk (Table 4a1), 7 nM. Besides, in the data set with d-U937 cells, the “Cell viability at time point in d-U937 cells, 4 h” value was “−ve (−ve and +ve indicate that the value is below and above respectively, the no significant effect threshold, defined as 30% inhibition at 1 μg/mL at the time point indicated)”. In addition, the “Cell viability at time point in d-U937 cells, 24 h” value in the data set with d-U937 cells is “−ve (−ve and +ve indicate that the value is below and above respectively, the no significant effect threshold, defined as 30% inhibition at 1 μg/mL at the time point indicated)”. The EC50 in data set [3] was determined as 0.2 nM. Moreover, the inhibition at 5 µg/mL in the data set on PBMC cells turned out to be 28.3%.
As to `C#Cc1cc(Nc2nccc(Oc3ccc(NC(=O)Nc4cc(C(C)(C)C)nn4-c4ccc(OC)cc4)c4ccccc34)n2)cc(C(=O)NCCOC)c1` [Example 84, 3-((4-((4-(3-(3-(tert-Butyl)-1-(4-methoxyphenyl)-1H-pyrazol-5-yl)ureido)-naphthalen-1-yl)oxy)pyrimidin-2-yl)amino)-5-ethynyl-N-(2-methoxyethyl)benzamide], the 50% inhibitory concentration (IC50) in the data set with IFN gamma release, PBMCs was 2.2 nM; against GSK3α [1], at least 13800 nM; in the data set on IL-8 release, PBMCs, 1.6 nM; at cSrc (setting [6]) it was 15 nM; in the data set on IL-2 release, PBMCs, 16 nM; on Syk (setting [6]) it was 33 nM. Further, the inhibition at 5 µg/mL in the data set with PBMC cells is 0.5%.
Consider `C#Cc1cc(Nc2nccc(Oc3ccc(NC(=O)Nc4cc(C(C)(C)C)nn4-c4ccc(C)cc4)c4ccccc34)n2)cc(C(=O)NC(C)(C)CN2CCOCC2)c1` [Example 82, 3-((4-((4-(3-(3-(tert-Butyl)-1-(p-tolyl)-1H-pyrazol-5-yl)ureido)naphthalen-1-yl)oxy)pyrimidin-2-yl)amino)-5-ethynyl-N-(2-methyl-1-morpholinopropan-2-yl)-benzamide], for which the IC50 was determined as 3.9 nM in the data set on IFN gamma release, PBMCs; 12200 nM on GSK3α [1]; 7.1 nM in the data set on IL-8 release, PBMCs; 37.4 nM with IL-2 release, PBMCs. Moreover, the inhibition at 5 µg/mL with PBMC cells is -6.3%.
With `C#Cc1cc(Nc2nccc(Oc3ccc(NC(=O)Nc4cc(C(C)(C)C#N)nn4-c4ccc(C)cc4)c4ccccc34)n2)cc(C(=O)NCCN2CCOCC2)c1` [Example 78, 3-((4-((4-(3-(3-(2-Cyanopropan-2-yl)-1-(p-tolyl)-1H-pyrazol-5-yl)ureido)-naphthalen-1-yl)oxy)pyrimidin-2-yl)amino)-5-ethynyl-N-(2-morpholinoethyl)benzamide], the IC50 was found to be 2.4 nM in the data set on IFN gamma release, PBMCs; 2810 nM on GSK3α [1]; 0.9 nM in the data set on IL-8 release, PBMCs; 8 nM on cSrc (setting [6]); 27.3 nM with IL-2 release, PBMCs; 23 nM against Syk (setting [6]). In addition, the inhibition at 5 µg/mL in the data set with PBMC cells was 2.1%.

The values above are taken from patent US20140057915A1, “KINASE INHIBITORS” (TOPIVERT PHARMA LIMITED, priority 2012, published 2014).
